Assay results from ChEMBL document CHEMBL1145498, “A systematic interaction map of validated kinase inhibitors with Ser/Thr kinases” (Proc Natl Acad Sci U S A, 2007).

biological target: Ribosomal protein S6 kinase alpha-3 (Homo sapiens) (UniProt P51812)
Sequence (P51812 whole entry): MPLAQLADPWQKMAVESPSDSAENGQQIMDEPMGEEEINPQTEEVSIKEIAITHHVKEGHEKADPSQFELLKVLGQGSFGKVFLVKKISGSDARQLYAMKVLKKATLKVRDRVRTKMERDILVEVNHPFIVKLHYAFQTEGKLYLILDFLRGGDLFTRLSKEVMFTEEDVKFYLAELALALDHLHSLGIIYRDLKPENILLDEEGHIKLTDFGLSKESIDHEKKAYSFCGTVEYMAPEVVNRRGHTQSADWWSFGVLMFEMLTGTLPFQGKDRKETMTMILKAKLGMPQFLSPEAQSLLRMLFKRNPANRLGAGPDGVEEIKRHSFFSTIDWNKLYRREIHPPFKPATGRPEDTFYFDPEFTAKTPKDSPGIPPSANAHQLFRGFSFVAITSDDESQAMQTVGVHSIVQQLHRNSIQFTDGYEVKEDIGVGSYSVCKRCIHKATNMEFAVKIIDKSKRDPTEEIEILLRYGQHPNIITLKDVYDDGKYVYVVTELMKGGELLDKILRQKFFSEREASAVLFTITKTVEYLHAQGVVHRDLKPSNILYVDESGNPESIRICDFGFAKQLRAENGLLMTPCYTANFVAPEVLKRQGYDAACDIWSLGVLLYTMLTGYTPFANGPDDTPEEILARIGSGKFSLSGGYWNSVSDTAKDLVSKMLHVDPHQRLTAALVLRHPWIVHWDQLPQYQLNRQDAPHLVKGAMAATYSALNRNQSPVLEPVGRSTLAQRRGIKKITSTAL

Row | ΔTm [°C] | Structure (SMILES)
1 | 4.6 | O=C1Nc2cc(Br)ccc2/C1=C1/Nc2ccccc2/C1=N\O
2 | 0 | O=c1c(-c2ccc(F)cc2)c(-c2ccncc2)[nH]n1-c1ccc(Cl)cc1

biological target: Calcium/calmodulin-dependent protein kinase type II subunit delta (Homo sapiens) (UniProt Q13557)

Row | ΔTm [°C] | Structure (SMILES)
3 | 0 | O=C1Nc2cc(Br)ccc2/C1=C1/Nc2ccccc2/C1=N\O
4 | 0.1 | O=c1c(-c2ccc(F)cc2)c(-c2ccncc2)[nH]n1-c1ccc(Cl)cc1

biological target: T1, Serine/threonine-protein kinase VRK1 (Homo sapiens) (UniProt Q99986)
T1 sequence (whole entry): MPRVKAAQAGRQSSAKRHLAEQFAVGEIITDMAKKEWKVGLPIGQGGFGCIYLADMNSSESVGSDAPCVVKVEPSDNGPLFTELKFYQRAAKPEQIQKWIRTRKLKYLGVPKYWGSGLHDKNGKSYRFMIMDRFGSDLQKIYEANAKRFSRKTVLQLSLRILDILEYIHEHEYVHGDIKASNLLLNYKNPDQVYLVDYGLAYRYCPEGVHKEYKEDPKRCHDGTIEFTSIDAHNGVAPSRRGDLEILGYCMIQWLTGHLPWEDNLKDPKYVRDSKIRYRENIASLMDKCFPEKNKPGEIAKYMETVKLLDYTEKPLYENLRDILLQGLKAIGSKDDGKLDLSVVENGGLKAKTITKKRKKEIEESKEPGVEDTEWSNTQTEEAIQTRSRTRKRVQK

Row | ΔTm [°C] | Structure (SMILES)
5 | 1 | O=C1Nc2cc(Br)ccc2/C1=C1/Nc2ccccc2/C1=N\O
6 | 0.8 | O=c1c(-c2ccc(F)cc2)c(-c2ccncc2)[nH]n1-c1ccc(Cl)cc1

biological target: Mitogen-activated protein kinase 11 (Homo sapiens, UniProt Q15759)
Sequence (Q15759 whole entry): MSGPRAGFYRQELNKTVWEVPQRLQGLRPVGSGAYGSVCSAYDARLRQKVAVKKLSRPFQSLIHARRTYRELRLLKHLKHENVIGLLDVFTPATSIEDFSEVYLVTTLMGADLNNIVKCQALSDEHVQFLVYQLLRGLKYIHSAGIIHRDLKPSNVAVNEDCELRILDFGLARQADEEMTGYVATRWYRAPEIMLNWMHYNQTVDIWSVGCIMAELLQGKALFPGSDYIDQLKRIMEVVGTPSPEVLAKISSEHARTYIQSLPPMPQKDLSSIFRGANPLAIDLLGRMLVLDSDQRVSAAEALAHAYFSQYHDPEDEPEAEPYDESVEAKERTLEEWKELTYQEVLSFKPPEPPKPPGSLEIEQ

Row | ΔTm [°C] | Structure (SMILES)
7 | -2.5 | O=C1Nc2cc(Br)ccc2/C1=C1/Nc2ccccc2/C1=N\O
8 | 7.1 | O=c1c(-c2ccc(F)cc2)c(-c2ccncc2)[nH]n1-c1ccc(Cl)cc1

biological target: T2, Myotonin-protein kinase (Homo sapiens) (UniProt Q09013)
T2 sequence (whole entry): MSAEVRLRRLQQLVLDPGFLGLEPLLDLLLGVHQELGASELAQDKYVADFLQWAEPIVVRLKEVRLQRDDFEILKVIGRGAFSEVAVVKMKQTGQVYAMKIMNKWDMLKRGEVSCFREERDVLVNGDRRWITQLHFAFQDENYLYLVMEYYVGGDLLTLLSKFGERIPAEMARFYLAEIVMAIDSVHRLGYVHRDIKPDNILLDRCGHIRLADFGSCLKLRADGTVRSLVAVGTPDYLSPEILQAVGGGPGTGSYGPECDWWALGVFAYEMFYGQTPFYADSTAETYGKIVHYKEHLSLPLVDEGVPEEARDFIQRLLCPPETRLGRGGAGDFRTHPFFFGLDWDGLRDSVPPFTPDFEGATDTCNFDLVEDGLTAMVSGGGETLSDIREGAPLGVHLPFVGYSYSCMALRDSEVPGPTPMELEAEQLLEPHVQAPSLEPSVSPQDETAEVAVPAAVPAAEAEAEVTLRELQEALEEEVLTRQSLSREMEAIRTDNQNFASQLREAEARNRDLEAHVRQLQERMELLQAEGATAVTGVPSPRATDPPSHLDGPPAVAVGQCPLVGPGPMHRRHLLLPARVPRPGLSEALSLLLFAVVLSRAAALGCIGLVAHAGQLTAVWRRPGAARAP

Row | ΔTm [°C] | Structure (SMILES)
9 | 0.3 | O=C1Nc2cc(Br)ccc2/C1=C1/Nc2ccccc2/C1=N\O
10 | 0.5 | O=c1c(-c2ccc(F)cc2)c(-c2ccncc2)[nH]n1-c1ccc(Cl)cc1

biological target: Serine/threonine-protein kinase pim-2 (Homo sapiens, UniProt Q9P1W9)
Sequence (Q9P1W9 whole entry, looked up): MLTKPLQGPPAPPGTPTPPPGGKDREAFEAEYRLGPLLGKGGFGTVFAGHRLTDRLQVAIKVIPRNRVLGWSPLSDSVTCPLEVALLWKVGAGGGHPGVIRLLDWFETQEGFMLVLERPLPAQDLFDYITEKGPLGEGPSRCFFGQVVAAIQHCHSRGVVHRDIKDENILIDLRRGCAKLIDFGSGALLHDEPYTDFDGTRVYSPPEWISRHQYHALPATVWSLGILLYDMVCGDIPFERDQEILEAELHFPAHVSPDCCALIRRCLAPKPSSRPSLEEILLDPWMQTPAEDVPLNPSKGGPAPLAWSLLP

Row | ΔTm [°C] | Structure (SMILES)
11 | 0.4 | O=C1Nc2cc(Br)ccc2/C1=C1/Nc2ccccc2/C1=N\O
12 | 0.2 | O=c1c(-c2ccc(F)cc2)c(-c2ccncc2)[nH]n1-c1ccc(Cl)cc1

biological target: Serine/threonine-protein kinase pim-1 (Homo sapiens) (UniProt P11309)
Sequence (P11309 whole entry, looked up): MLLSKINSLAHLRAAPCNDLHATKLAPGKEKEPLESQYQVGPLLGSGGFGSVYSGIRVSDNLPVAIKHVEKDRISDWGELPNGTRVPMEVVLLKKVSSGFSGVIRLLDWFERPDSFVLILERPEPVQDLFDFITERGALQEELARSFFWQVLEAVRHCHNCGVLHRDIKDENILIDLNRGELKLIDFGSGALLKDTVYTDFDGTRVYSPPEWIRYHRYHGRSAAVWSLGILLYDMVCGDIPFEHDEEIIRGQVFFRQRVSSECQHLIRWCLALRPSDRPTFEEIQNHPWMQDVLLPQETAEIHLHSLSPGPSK

Row | ΔTm [°C] | Structure (SMILES)
13 | 0.1 | O=C1Nc2cc(Br)ccc2/C1=C1/Nc2ccccc2/C1=N\O
14 | -0.1 | O=c1c(-c2ccc(F)cc2)c(-c2ccncc2)[nH]n1-c1ccc(Cl)cc1

biological target: Calcium/calmodulin-dependent protein kinase type II subunit gamma (Homo sapiens) (UniProt Q13555)
Sequence (Q13555 whole entry): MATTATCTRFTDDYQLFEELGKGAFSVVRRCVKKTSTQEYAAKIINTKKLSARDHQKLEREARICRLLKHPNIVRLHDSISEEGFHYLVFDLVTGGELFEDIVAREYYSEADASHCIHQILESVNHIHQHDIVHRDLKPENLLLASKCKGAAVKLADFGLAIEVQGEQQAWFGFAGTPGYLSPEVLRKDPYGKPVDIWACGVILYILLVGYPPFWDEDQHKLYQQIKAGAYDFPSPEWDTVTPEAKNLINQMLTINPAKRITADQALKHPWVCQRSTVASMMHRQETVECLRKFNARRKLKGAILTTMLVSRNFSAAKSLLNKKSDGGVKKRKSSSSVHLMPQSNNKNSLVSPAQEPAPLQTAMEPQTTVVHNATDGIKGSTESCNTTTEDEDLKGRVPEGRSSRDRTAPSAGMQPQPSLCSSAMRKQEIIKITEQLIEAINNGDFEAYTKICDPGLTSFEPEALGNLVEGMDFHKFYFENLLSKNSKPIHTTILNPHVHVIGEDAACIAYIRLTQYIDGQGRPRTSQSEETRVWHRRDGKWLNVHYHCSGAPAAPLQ

Row | ΔTm [°C] | Structure (SMILES)
15 | 4 | O=C1Nc2cc(Br)ccc2/C1=C1/Nc2ccccc2/C1=N\O
16 | 0 | O=c1c(-c2ccc(F)cc2)c(-c2ccncc2)[nH]n1-c1ccc(Cl)cc1

biological target: Serine/threonine-protein kinase PAK 5 (Homo sapiens) (UniProt Q9P286)
Sequence (Q9P286 whole entry, looked up): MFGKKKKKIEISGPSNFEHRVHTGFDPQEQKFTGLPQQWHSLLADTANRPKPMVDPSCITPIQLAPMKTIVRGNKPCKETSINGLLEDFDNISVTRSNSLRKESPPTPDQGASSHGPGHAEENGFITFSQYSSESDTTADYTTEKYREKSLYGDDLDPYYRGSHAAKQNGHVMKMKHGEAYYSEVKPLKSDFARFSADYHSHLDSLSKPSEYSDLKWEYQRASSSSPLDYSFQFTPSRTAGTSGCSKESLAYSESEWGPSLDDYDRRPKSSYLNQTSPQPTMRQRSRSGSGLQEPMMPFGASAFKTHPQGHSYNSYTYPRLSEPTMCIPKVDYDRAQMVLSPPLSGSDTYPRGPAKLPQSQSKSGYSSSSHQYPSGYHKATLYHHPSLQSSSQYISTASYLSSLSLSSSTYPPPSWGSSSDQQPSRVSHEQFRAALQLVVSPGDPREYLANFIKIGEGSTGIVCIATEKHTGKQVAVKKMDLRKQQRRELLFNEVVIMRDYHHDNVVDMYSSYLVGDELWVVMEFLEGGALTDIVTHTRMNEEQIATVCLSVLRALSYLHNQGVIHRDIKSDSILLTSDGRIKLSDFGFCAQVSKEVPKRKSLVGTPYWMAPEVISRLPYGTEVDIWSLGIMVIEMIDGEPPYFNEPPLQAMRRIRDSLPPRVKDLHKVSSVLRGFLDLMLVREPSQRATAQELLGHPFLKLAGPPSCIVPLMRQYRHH

Row | ΔTm [°C] | Structure (SMILES)
17 | 4.6 | O=C1Nc2cc(Br)ccc2/C1=C1/Nc2ccccc2/C1=N\O
18 | -0.1 | O=c1c(-c2ccc(F)cc2)c(-c2ccncc2)[nH]n1-c1ccc(Cl)cc1

biological target: T3, Lymphokine-activated killer T-cell-originated protein kinase (Homo sapiens) (UniProt Q96KB5)
T3 sequence (whole entry): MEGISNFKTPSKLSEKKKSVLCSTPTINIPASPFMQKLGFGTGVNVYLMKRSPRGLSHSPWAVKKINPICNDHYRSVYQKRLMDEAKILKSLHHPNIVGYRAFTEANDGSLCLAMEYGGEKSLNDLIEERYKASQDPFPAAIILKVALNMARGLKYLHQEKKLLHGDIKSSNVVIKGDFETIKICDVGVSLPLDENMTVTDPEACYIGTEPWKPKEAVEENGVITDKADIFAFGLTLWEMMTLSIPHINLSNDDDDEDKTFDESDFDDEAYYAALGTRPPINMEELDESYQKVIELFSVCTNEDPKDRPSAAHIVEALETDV

Row | Structure (SMILES) | ΔTm [°C]
19 | O=C1Nc2cc(Br)ccc2/C1=C1/Nc2ccccc2/C1=N\O | 1.1
20 | O=c1c(-c2ccc(F)cc2)c(-c2ccncc2)[nH]n1-c1ccc(Cl)cc1 | 0.8

biological target: Dual specificity mitogen-activated protein kinase kinase 2 (Homo sapiens, UniProt P36507)
Sequence (P36507 whole entry): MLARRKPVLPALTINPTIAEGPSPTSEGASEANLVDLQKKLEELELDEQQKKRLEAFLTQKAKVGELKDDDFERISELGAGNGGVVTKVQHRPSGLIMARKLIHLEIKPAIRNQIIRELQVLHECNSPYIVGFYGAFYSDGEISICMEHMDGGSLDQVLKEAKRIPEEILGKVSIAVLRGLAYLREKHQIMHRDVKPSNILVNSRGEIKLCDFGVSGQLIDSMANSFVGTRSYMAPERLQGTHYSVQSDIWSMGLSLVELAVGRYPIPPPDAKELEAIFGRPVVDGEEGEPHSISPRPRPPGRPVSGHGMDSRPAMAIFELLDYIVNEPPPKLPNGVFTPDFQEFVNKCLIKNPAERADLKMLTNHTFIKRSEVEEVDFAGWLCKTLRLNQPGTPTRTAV

Row | ΔTm [°C] | Structure (SMILES)
21 | 3.1 | O=C1Nc2cc(Br)ccc2/C1=C1/Nc2ccccc2/C1=N\O
22 | 1.9 | O=c1c(-c2ccc(F)cc2)c(-c2ccncc2)[nH]n1-c1ccc(Cl)cc1

biological target: Serine/threonine-protein kinase OSR1 (Homo sapiens) (UniProt O95747)

Row | ΔTm [°C] | Structure (SMILES)
23 | 0.6 | O=C1Nc2cc(Br)ccc2/C1=C1/Nc2ccccc2/C1=N\O
24 | 0.2 | O=c1c(-c2ccc(F)cc2)c(-c2ccncc2)[nH]n1-c1ccc(Cl)cc1

biological target: Death-associated protein kinase 3 (Homo sapiens) (UniProt O43293)

Row | Structure (SMILES) | ΔTm [°C]
25 | O=C1Nc2cc(Br)ccc2/C1=C1/Nc2ccccc2/C1=N\O | 3.1
26 | O=c1c(-c2ccc(F)cc2)c(-c2ccncc2)[nH]n1-c1ccc(Cl)cc1 | 0.6

biological target: Serine/threonine-protein kinase 26 (Homo sapiens) (UniProt Q9P289)
Sequence (Q9P289 2-416 limits assumed): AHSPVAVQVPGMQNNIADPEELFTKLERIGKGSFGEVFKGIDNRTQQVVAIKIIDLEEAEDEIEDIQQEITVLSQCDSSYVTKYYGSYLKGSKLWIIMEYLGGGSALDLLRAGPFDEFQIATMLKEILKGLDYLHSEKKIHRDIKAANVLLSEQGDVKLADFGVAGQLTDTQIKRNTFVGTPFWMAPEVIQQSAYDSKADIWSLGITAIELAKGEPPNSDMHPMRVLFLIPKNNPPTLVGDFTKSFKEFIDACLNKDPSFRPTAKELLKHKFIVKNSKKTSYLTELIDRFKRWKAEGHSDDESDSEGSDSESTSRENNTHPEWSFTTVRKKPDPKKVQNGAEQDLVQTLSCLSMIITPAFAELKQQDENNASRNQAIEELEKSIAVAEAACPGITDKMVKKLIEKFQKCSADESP

Row | ΔTm [°C] | Structure (SMILES)
27 | 4.1 | O=C1Nc2cc(Br)ccc2/C1=C1/Nc2ccccc2/C1=N\O
28 | 0.6 | O=c1c(-c2ccc(F)cc2)c(-c2ccncc2)[nH]n1-c1ccc(Cl)cc1

biological target: Cyclin-dependent kinase 2 (Homo sapiens, UniProt P24941)

Row | ΔTm [°C] | Structure (SMILES)
29 | 4.1 | O=C1Nc2cc(Br)ccc2/C1=C1/Nc2ccccc2/C1=N\O
30 | 0.2 | O=c1c(-c2ccc(F)cc2)c(-c2ccncc2)[nH]n1-c1ccc(Cl)cc1

biological target: Serine/threonine-protein kinase 26 (Homo sapiens) (UniProt Q9P289); remark: another data set of the same source

Row | ΔTm [°C] | Structure (SMILES)
31 | 3.7 | O=C1Nc2cc(Br)ccc2/C1=C1/Nc2ccccc2/C1=N\O
32 | -0.5 | O=c1c(-c2ccc(F)cc2)c(-c2ccncc2)[nH]n1-c1ccc(Cl)cc1

biological target: Dual specificity protein kinase CLK2 (Homo sapiens) (UniProt P49760)
Sequence (P49760 whole entry, looked up): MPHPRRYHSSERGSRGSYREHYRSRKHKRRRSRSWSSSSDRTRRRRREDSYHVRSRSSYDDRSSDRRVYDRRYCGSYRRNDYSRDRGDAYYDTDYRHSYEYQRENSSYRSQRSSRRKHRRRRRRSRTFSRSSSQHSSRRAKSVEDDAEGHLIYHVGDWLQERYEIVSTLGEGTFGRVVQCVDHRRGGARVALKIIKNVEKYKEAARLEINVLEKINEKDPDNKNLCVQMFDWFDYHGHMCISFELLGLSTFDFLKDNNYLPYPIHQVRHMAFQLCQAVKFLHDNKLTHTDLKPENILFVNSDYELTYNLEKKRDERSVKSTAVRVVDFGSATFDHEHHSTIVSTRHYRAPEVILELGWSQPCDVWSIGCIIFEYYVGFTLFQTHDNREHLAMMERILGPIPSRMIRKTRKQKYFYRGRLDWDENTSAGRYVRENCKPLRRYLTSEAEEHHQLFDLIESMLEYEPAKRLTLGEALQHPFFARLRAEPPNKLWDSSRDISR

Row | ΔTm [°C] | Structure (SMILES)
33 | 1.9 | O=C1Nc2cc(Br)ccc2/C1=C1/Nc2ccccc2/C1=N\O
34 | 0.8 | O=c1c(-c2ccc(F)cc2)c(-c2ccncc2)[nH]n1-c1ccc(Cl)cc1

biological target: Serine/threonine-protein kinase pim-3 (Homo sapiens) (UniProt Q86V86)

Row | ΔTm [°C] | Structure (SMILES)
35 | -0.1 | O=C1Nc2cc(Br)ccc2/C1=C1/Nc2ccccc2/C1=N\O
36 | 0.5 | O=c1c(-c2ccc(F)cc2)c(-c2ccncc2)[nH]n1-c1ccc(Cl)cc1

biological target: Calcium/calmodulin-dependent protein kinase type 1D (Homo sapiens) (UniProt Q8IU85)

Row | ΔTm [°C] | Structure (SMILES)
37 | -0.8 | O=C1Nc2cc(Br)ccc2/C1=C1/Nc2ccccc2/C1=N\O
38 | 0.1 | O=c1c(-c2ccc(F)cc2)c(-c2ccncc2)[nH]n1-c1ccc(Cl)cc1

biological target: T4, Serine/threonine-protein kinase 17A (Homo sapiens) (UniProt Q9UEE5)
T4 sequence (whole entry): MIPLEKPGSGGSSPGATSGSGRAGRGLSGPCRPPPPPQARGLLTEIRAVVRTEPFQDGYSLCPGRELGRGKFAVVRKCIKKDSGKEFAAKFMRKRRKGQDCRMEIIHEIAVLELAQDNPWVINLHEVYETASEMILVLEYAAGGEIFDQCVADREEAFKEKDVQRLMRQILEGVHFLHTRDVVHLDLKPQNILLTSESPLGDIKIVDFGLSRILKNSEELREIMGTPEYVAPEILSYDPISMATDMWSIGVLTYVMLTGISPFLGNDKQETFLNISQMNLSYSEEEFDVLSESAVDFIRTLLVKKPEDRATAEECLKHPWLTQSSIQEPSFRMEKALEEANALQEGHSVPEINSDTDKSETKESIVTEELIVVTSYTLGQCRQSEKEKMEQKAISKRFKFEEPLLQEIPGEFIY

Row | ΔTm [°C] | Structure (SMILES)
39 | 1.9 | O=C1Nc2cc(Br)ccc2/C1=C1/Nc2ccccc2/C1=N\O
40 | 0.2 | O=c1c(-c2ccc(F)cc2)c(-c2ccncc2)[nH]n1-c1ccc(Cl)cc1
